Values after ≈ are worked out from the molar mass of the structure shown.
Details: buffer; pH 7.4; 200.0 µM

SMILES	solubility kinetic [µg/mL]
CN(CC(=O)NCC1CCCCC1)S(=O)(=O)c1ccc(F)cc1	16.2 (≈ 47.3 µM)
O=C(NCc1ccco1)/C(=C\c1cccs1)NC(=O)c1ccccc1	> 52.9
CC(NC(=S)Nc1ccc(OC(F)F)c(Cl)c1)C(C)(C)C (configuration not stated)	2.3 (≈ 6.83 µM)
Cc1ccc(C(=O)c2coc3ccc(O)c(CN(C)C)c23)cc1.Cl	48
O=C(c1ccc(S(=O)(=O)NCc2ccco2)cc1)N1CCN(c2ccccc2)CC1	9.1 (≈ 21.4 µM)
CCOC(=O)/C(=C/Nc1ccc(F)cc1)[N+](=O)[O-]	33.9 (≈ 133 µM)
CC(C)(C)N/C=C(\C#N)S(=O)(=O)c1ccc(Br)cc1	7.7 (≈ 22.4 µM)
CCc1ccc(C(=O)OCC(=O)NC2CCCC2)cc1	11.6 (≈ 42.1 µM)
O=C(COC(=O)CCNS(=O)(=O)c1ccccc1)NC1CC1	43.8 (≈ 134 µM)
C=CCNC(=O)CN1c2cccc3cccc(c23)S1(=O)=O	40.4 (≈ 134 µM)
COc1ccc(S(=O)(=O)Nc2cccc(S(=O)(=O)N3CCCCC3)c2)cc1	44 (≈ 107 µM)
CCN(CC)c1ccc(N=Cc2c(O)[nH]c(=O)[nH]c2=O)cc1	5.8 (≈ 19.2 µM)
CC12CCC(C(=O)Nc3ccncc3)(CC1O)C2(C)C (configuration not stated)	> 41.2
CCOC(=O)c1cnc(SC)nc1N1CCCC1	> 40.1
Cc1ccc(OCc2ccc([N+](=O)[O-])cc2)c([N+](=O)[O-])n1	1.1 (≈ 3.8 µM)
CC(=O)Nc1ccc(C(=O)Nc2ccc3c(c2)OCCO3)cc1	22.8 (≈ 73 µM)
O=C(c1ccccn1)N1CCN(S(=O)(=O)c2ccccc2)CC1	> 49.7
Cc1ccc(C(=O)N[C@H](C(=O)Nc2ccc(F)cc2)C(C)C)cc1	3 (≈ 9.14 µM)
Cc1cc(C(=O)Nc2nncs2)oc1C	> 33.5
COc1ccc(C(=O)NCCN2CCOCC2)cc1[N+](=O)[O-]	> 46.4
Cc1cc(C(=O)OCC(=O)N2C(C)CCCC2C)c2ccccc2n1 (configuration not stated)	> 51.1
CN(CC(=O)Nc1ccc(Cl)c(C(F)(F)F)c1)C(=O)c1cnccn1	13.7 (≈ 36.8 µM)
COC(=O)C1=C(NC(=O)c2ccccc2[N+](=O)[O-])CCS1	8.4 (≈ 27.2 µM)
NC(=S)c1cc2cc(Cl)ccc2oc1=O	1.6 (≈ 6.68 µM)

SMILES	solubility kinetic [µg/mL]
CCN(c1ccccc1)c1nc(C#N)nc(N(CC)c2ccccc2)n1	0.9 (≈ 2.61 µM)
O=C(Nc1ncc2c(n1)-c1ccccc1OC2)c1ccc(F)cc1	6.1 (≈ 19 µM)
O=C1NC(=O)c2cc(Oc3ccc([N+](=O)[O-])cc3)ccc21	2.5 (≈ 8.8 µM)
O=C(COC(=O)c1ccc([N+](=O)[O-])o1)NC1CCCC1	39.2 (≈ 139 µM)
CCC(NC(=O)C1CCCO1)c1ccccc1 (configuration not stated)	> 35
CCOC(=O)C1(CCc2ccccc2)CCN(CC(O)CO)CC1 (configuration not stated)	39.8 (≈ 119 µM)
CCOc1ncccc1C(=O)Nc1ccc2c(c1)OCCO2	> 45
O=C(NCc1ccc(F)cc1)c1cccs1	29.9 (≈ 127 µM)
CCOC(=O)CNC(=O)CSc1nc(-c2ccc(C)cc2)ns1	11.1 (≈ 31.6 µM)
c1ccc(Nc2nc(-c3ccccc3)nc3ccccc23)cc1	2.5 (≈ 8.41 µM)
CSc1ncc2c(=O)[nH]c(-c3ccccc3)nc2n1	> 40.5
O=C1[C@H](O)[C@@H](O)C(=O)N1Cc1ccccc1	> 33.2
COCCNC(=O)CN1C(=O)c2cccc3cccc1c23	> 42.6
CCN(C(=O)c1cn(C)c(=O)c2ccccc12)c1ccccc1F	> 48.7
COc1ccc(Cl)cc1C(=O)Nc1cccnc1Cl	< 0.3
Clc1ccc(Cn2ccc3ccccc32)cn1	26.4 (≈ 109 µM)
O=C(CSc1nnc(-c2ccncc2)o1)Nc1nncs1	> 48.1
Cl.Nc1cnn(Cc2ccc(F)cc2)c1	> 34.2
COc1ccccc1NS(=O)(=O)c1cc(N)ccc1N1CCCC1	21.4 (≈ 61.6 µM)
COc1cc(/C=C/C(=O)OCC(=O)NC2CC2)cc(OC)c1OC	> 50.3
Cc1cc(C)nc(SC(C)CNS(=O)(=O)c2ccccc2)n1 (configuration not stated)	45.9 (≈ 136 µM)
CCC(=O)OCC(=O)Nc1ncc(C(F)(F)F)cc1Cl	> 46.6
C#CCSc1nc(=O)c2cccnc2n1-c1ccc(C)cc1	> 46.1
CNC(=O)c1cc2cc(Br)ccc2s1	8.1 (≈ 30 µM)

SMILES	solubility kinetic [µg/mL]
Cc1cnc(C(=O)OCC(=O)N2CC(C)CC(C)C2)cn1 (configuration not stated)	43.3 (≈ 149 µM)
CCN1CCN(C(=O)COc2ccc3oc4c(c3c2)CCCC4)CC1	> 51.4
COc1ccc(OC)c(N=Cc2c(O)c3ccccc3oc2=O)c1	3.6 (≈ 11.1 µM)
NC(=O)NC(=O)CSc1ccccc1	> 31.5
c1ccc(Oc2nc(-c3ccccn3)nc3ccccc23)cc1	43.1 (≈ 144 µM)
COCCCNC(=S)Nc1c(C)cc(C)cc1C	37.2 (≈ 140 µM)
CC(=O)OCC(=O)Nc1c(C)cccc1C	> 33.2
CNC(=O)c1ccc(Nc2nc(-c3ccccc3)nc3ccccc23)cc1	14.9 (≈ 42 µM)
O=C(OCC(=O)N1CCN(c2ccc(F)cc2)CC1)c1cnc2ccccc2n1	19.5 (≈ 49.4 µM)
CC(C)Oc1ccc(N2CC(C(=O)NC3=NCCS3)CC2=O)cc1 (configuration not stated)	> 52.1
CC(=O)N(Cc1cc(=O)[nH]c2ccccc12)c1ccccc1C	43.6 (≈ 142 µM)
COc1ccc(CCN(C)CCCC(C#N)(c2cc(OC)c(OC)c(OC)c2)C(C)C)cc1OC.Cl (configuration not stated)	> 78.2
O=C(CNC(=O)c1ccccc1F)OCc1nc2ccccc2s1	48.6 (≈ 141 µM)
CN(n1cnc2ccccc2c1=O)S(C)(=O)=O	> 38
COc1ccccc1CNC(=O)C(NC(=O)c1ccccc1)C(C)C (configuration not stated)	9.9 (≈ 29.1 µM)
CN1CCN(c2c(/C=N/O)c3ccccc3n2C)CC1	> 40.9
Cn1c(N2CCOCC2)c(C#N)c2ccccc21	17 (≈ 70.5 µM)
COc1ccc(/C=C/C(=O)Nc2ccncc2)cc1OC	29.8 (≈ 105 µM)
CC(Oc1ccc(C#N)cc1)C(=O)c1ccc(F)c(F)c1 (configuration not stated)	32.6 (≈ 113 µM)
Brc1cccc(CNCc2ccncc2)c1	> 41.6
COc1ccc(Oc2ncnc3sccc23)cc1	14.9 (≈ 57.7 µM)
CCn1c(C)c(C(=O)c2ccccc2)c(C#N)c1C(=O)O	36.6 (≈ 130 µM)
O=C(C(c1ccccc1)c1ccccc1)N1CC[C@@]2(O)CCCC[C@H]2C1	> 52.4
O=C(CN1CCN(C(=O)c2ccc(OCc3cn4ccccc4n3)cc2)CC1)Nc1cccc(F)c1	8.6 (≈ 17.6 µM)

SMILES	solubility kinetic [µg/mL]
COc1nccnc1NS(=O)(=O)c1ccc(N)cc1	> 42
Cc1[nH]c2ccccc2c1C(=O)C(=O)NC1CC1	> 36.3
CCCCS(=O)(=O)N1CCCC(C(=O)Nc2ccc(Cl)cn2)C1 (configuration not stated)	19.9 (≈ 55.3 µM)
CCOc1ccc(N(C)S(=O)(=O)c2ccc(C)c(C(=O)N3CCN(Cc4ccc5c(c4)OCO5)CC3)c2)cc1	15.2 (≈ 27.6 µM)
CCc1nc(SCC(=O)Nc2ccc(N(C)C)cc2)n[nH]1	> 45.8
CCSc1nnc(SCC(=O)NC2CCCCC2)s1	> 47.6
Cc1onc(-c2c(F)cccc2Cl)c1C(=O)c1ccccc1O	2.6 (≈ 7.84 µM)
CCCC(=O)Nc1ccc2c(c1)Cc1ccccc1-2	1.5 (≈ 5.97 µM)
Cc1ccccc1C(=O)NC1CCCCCCC1	30.2 (≈ 123 µM)
COC(=O)c1c(C)[nH]c(C(=O)C(C)OC(=O)c2ccco2)c1C (configuration not stated)	4.5 (≈ 14.1 µM)
O=C(CSc1ccccn1)N1CCc2ccccc21	3.7 (≈ 13.7 µM)
COc1ccc(CNC(=O)c2cc3c(=O)[nH]c4ccccc4c3n2C)cc1	< 0.3
CCN1CCn2c3c(c4cccc(C)c42)CCCC31.Cl (configuration not stated)	33.6
O=C(NCCCN1CCOCC1)c1cc2ccccc2cc1O	> 47.2
N#CC1(NC(=O)COC(=O)CN2C(=O)c3ccccc3C2=O)CCCCC1	> 55.4
CN(C)S(=O)(=O)c1cccc(NC(=O)C2CCN(S(=O)(=O)c3cccs3)CC2)c1	23.4 (≈ 51.1 µM)
c1ccc2c(NCCc3c[nH]c4ccccc34)c3ccccc3nc2c1	> 50.6
O=C(NCc1ccccc1)NC12CC3CC(CC(C3)C1)C2	2.6 (≈ 9.14 µM)
CC1CC(C)(C)NC(=S)N1CCC(=O)N1c2ccccc2CC1C (configuration not stated)	5.3 (≈ 15.3 µM)
CC1CC(C)CN(C(=O)COC(=O)CN2C(=O)c3ccccc3C2=O)C1 (configuration not stated)	> 53.8
CC(C)(C)NC(=O)N1CCn2cccc2C1c1ccccc1F (configuration not stated)	40 (≈ 127 µM)
COc1ccc(C2C(C(C)=O)=C(O)C(=O)N2c2ccc(C)cc2)cc1 (configuration not stated)	> 50.6
COc1ccc(Cl)cc1NC(=O)C1CC(c2ccccc2O)=NO1 (configuration not stated)	0.9 (≈ 2.6 µM)
Cn1c(O)c(/C=N/NC(=O)c2ccncc2)c(=O)[nH]c1=S	> 45.8

SMILES	solubility kinetic [µg/mL]
O=C(CCl)N(CCCNC(=O)C(F)(F)F)c1ccc([N+](=O)[O-])cc1	> 55.2
Cc1nnc(SCC(=O)Nc2ccc([N+](=O)[O-])cc2)n1C	> 46.1
Cc1cccc(NC(=O)c2cccc(N3C(=O)CCC3=O)c2)c1	> 46.3
COc1ccc(Cn2cc([N+](=O)[O-])nc2C)cc1[N+](=O)[O-]	> 43.8
CC(=O)N1CCN(c2ccc(S(C)(=O)=O)cc2[N+](=O)[O-])CC1	> 49.1
CCOC(=O)c1cnc(-c2ccc(C(F)(F)F)cn2)[nH]c1=O	46.8 (≈ 149 µM)
Cc1ccc(/C=C/C(=O)O)cc1S(=O)(=O)Nc1ccc(C(=O)O)cc1	42.4 (≈ 117 µM)
NC(=O)COC(=O)c1ccc2c(c1)C(=O)N(Cc1ccco1)C2=O	> 49.2
CCCn1c2ccccc2c2cnn(CC(=O)NCCOC)c(=O)c21	> 51.4
Cc1ccc(S(=O)(=O)N2CCN(C)CC2)cc1C	31.3 (≈ 117 µM)
Cc1noc(C)c1C(=O)OC(C)C(=O)N(C)c1ccccc1 (configuration not stated)	> 45.3
CN1CCN(S(=O)(=O)c2ccc3c(c2)CC(=O)N3C)CC1	> 46.4
O=C(CSc1nccc(=O)[nH]1)c1ccco1	> 35.4
O=C(COC(=O)CCc1ccc(S(=O)(=O)N2CCOCC2)cc1)Nc1ccccc1[N+](=O)[O-]	16.8 (≈ 35.2 µM)
O=C(Nc1ccncc1)c1ccc(Cl)c([N+](=O)[O-])c1	> 41.7
N#Cc1cnc(Sc2ccccc2)nc1	26 (≈ 122 µM)
COc1cc(C=O)ccc1Oc1ccc(S(=O)(=O)N2CCOCC2)cc1[N+](=O)[O-]	28.7 (≈ 67.9 µM)
Cc1c(C)[n+](=O)c(-c2ccc(Br)cc2)c(C)n1[O-]	> 46.4
CC(C)CNC(=O)COC(=O)Cc1ccc(Cl)cc1	36.1 (≈ 127 µM)
C=CCOc1ccccc1CNc1ccc2[nH]c(=O)[nH]c2c1	> 44.3
N#Cc1ccc(C(=O)NC(=S)NC2CCCCC2)cc1	21.9 (≈ 76.2 µM)

— PubChem BioAssay AID1996
